# Data reported in patent publication US10905783B2, “Glucosamine and derivatives thereof in imaging” (priority 2015, dated 2021).
# How the values were obtained:
# [1] = cited from earlier work
# [2] = test system: 4T1 tumor; experiment: In vivo CEST MRI of 4T1 breast tumors in mice; parameters: species or system mouse
# Experimental: 4T1 mouse mammary tumor cell lines were obtained from ATCC. Cells were cultured in high glucose DMEM supplemented 5% FBS, 5% NCS, NEAA and antibiotics (100 units/ml penicillin and 100 μg/ml streptomycin) at 37° C. in a humidified atmosphere containing 5% CO2.
# BALB/C female mice were purchased and kept in the breeding facility of Life Science School, Tel Aviv University. To induce orthotropic xenograph tumors in the mice. 4T1 cells were injected into the lower left mammary gland of 8-week-old (17-22 gram) animals (10^6 cells in 100 μL saline). The tumors were allowed to grow for 10-14 days, reaching an average tumor volume of 5 mm^3. All experiments with animal models were carried out in compliance with the principles of the National Research Council (NRC) and were approved by the institutional animal care and use committee (IACUC) (#M-15-057).
# A Bruker 7 Tesla (T) Biospec scanner with 30 cm bore size was used to scan implanted xenograph mammary tumors of mice before and after administration (i.v., i.p. or p.o.) of glucosamine or its derivatives (the glucose analogues were dissolved in saline, pH 7.4). 4T1 or MCF7 tumor-bearing mice, with an average tumor volume of 2-7 mm^3, were fasted overnight with water access, anesthetized with isoflurane (1-2%) and scanned (without surface coil). Their temperature was maintained at 37° C.
# At first, T2 RARE anatomical images (RARE factor-8, TR-3000 ms, TE-11.7 ms) were acquired to identify the slice selection with maximum tumor size. The CEST images were generated as follows: a series of T2 RARE images (RARE factor-1, TR-3000 ms, TE-11.7 ms) were collected from a single 1 mm coronal slice of the abdominal area (acquisition matrix before zero filling 128×64, field of view of 40×40 mm^2) after a 2 s presaturation pulse of B1=2.5 μT (106 Hz) at the hydroxyl proton frequency offset of ±1.2 ppm from the water signal. The CEST images were acquired before and after glucosamine or its derivatives administration in order to identify the baseline. The acquisition continued for more than an hour after treatment.
# The mean intensities in the selected region of interest (ROI) of the tumor were used for the % CEST plot.
# [3] = test system: TSA and B16 cancer models; settings: cited from earlier work
compound,measurement,setting,value
"O=CC[C@@H](O)[C@H](O)[C@H](O)CO [2-DG, 2-deoxy-D-glucose]",toxic dose,[1]; rats,3000 mg/kg
O=C[C@H](O)[C@@H](O)[C@H](O)[C@H](O)CO [D-glucose],time after administration at which the CEST signal decreased dramatically,"[2]; D-glucose 1000 mg/kg per os, same animal as glucosamine",30 to 40 min
same,duration of the CEST signal,"[2]; PO, 4T1 model",less than an hour
same,CEST signal,[2]; oral doses of less than 1 g/kg,no significant CEST signal
same,CEST signal 60 minutes after administering,"[2]; same animal, glucosamine at half the dosage of D-glucose",no CEST signal was observed
"O=C[C@H](F)[C@@H](O)[C@H](O)[C@H](O)CO [FDG, 2-fluoro-deoxy-D-glucose]",toxicity,[1]; high concentrations,toxic at high concentrations
CC(=O)N[C@H]1C(O)O[C@H](CO)[C@@H](O)[C@@H]1O (stereo partly drawn) [N-Acetyl-D-glucosamine],CEST contrast,[3],increase CEST contrast
